Experimental data: patent US12581252B2, “Substituted pyrrolo[3,4-b]pyridines as PI3K-α inhibitors” (Relay Therapeutics, Inc., priority 2020, dated 2026)

Key:
[1] = cells; conditions: Homo sapiens, MCF-10A, read-out: MCF10A IC50
[2] = biological target: H1047R PIK3CA enzyme (Homo sapiens, UniProt P42336, H1047R); test: ADP-Glo Biochemical PIK3CA Kinase Assay
Chain of H1047R PIK3CA enzyme (P42336 whole entry H1047R): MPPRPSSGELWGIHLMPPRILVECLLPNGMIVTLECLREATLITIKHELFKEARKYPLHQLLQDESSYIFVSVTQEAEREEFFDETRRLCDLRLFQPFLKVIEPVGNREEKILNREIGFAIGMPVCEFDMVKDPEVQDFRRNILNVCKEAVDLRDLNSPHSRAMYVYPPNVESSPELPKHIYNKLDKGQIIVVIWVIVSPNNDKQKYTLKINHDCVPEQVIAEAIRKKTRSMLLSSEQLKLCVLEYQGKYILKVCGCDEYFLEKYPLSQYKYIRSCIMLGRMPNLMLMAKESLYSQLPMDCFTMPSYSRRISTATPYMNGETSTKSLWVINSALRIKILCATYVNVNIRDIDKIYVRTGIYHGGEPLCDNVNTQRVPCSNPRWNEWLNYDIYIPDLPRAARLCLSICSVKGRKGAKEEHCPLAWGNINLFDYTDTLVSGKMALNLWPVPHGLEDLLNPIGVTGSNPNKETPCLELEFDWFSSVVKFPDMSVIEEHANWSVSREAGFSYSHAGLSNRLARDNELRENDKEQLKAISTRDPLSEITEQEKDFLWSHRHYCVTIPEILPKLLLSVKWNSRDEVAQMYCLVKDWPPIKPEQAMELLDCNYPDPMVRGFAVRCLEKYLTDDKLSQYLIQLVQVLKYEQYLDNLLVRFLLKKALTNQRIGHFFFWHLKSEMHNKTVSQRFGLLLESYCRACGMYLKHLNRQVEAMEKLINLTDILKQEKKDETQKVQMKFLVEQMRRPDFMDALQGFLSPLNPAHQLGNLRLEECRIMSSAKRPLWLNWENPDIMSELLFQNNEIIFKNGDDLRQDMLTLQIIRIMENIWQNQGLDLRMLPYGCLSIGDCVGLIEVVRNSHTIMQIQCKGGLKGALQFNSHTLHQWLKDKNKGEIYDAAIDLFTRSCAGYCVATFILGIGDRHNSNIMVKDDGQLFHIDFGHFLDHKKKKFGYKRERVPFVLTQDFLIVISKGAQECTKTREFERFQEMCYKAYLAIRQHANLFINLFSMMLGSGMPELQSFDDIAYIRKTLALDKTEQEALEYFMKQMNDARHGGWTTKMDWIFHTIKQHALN
Chain of H1047R PIK3CA enzyme (P27986 whole entry partner): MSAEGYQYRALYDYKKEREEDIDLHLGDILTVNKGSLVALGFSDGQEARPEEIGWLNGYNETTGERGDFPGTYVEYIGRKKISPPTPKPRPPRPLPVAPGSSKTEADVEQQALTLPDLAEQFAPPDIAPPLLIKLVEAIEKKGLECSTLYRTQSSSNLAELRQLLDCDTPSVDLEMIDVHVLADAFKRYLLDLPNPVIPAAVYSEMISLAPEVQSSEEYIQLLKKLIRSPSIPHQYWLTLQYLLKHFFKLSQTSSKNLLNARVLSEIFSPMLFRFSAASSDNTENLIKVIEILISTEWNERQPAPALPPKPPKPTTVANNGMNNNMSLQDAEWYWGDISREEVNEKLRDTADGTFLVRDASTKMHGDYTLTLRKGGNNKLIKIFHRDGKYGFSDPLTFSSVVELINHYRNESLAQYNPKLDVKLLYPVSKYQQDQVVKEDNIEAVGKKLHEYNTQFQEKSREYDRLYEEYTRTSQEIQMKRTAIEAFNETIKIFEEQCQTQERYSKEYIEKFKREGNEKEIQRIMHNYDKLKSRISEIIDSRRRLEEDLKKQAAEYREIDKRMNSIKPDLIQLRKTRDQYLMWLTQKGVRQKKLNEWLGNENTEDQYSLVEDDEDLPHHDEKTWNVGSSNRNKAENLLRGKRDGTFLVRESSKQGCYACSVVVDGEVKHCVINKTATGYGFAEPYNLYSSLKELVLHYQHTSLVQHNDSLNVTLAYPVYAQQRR

| SMILES | IC50 [2] [µM] | IC50 [1] [µM] |
| --- | --- | --- |
| COCc1cc(NC(=O)c2nsc3ccccc23)c2c(c1)C(=O)NC2c1ccccc1C (stereo not shown) [Compound I-146, N-(6-(Methoxymethyl)-1-oxo-3-(o-tolyl)isoindolin-4-yl)benzo[d]isothiazole-3-carboxamide] | ≤ 0.1 | 5 to 10 |
| CC(C)(O)Cn1cc(-c2cc(NC(=O)c3cc(F)cc(C(F)(F)F)c3)c3c(c2)C(=O)NC3c2cc(F)ccc2Cl)cn1 (stereo not shown) [Compound I-968] | ≤ 0.1 | < 1 |
| O=C1N[C@H](c2ccccc2Cl)c2c(NC(=O)N3C[C@@](O)(C(F)(F)F)c4cc(F)ccc43)cccc21 (single isomer, unassigned) [Compound I-2688] | ≤ 0.1 | < 1 |
| O=C1N[C@H](c2cc(F)ccc2Cl)c2c(NC(=O)N3C[C@](O)(C(F)(F)F)c4cc(F)ccc43)cc(C(F)F)cc21 (single isomer, unassigned) [Compound I-2579] | ≤ 0.1 | < 1 |
| O=C(Nc1cc(-c2cccc3ncccc23)cc2c1C(c1cc(F)ccc1Cl)NC2=O)c1cc(F)cc(C(F)(F)F)c1 (stereo not shown) [Compound I-931] | ≤ 0.1 | < 1 |
| O=C(Nc1cc(NC2COC2)cc2c1[C@H](c1cc(F)ccc1Cl)NC2=O)c1cc(F)cc(C(F)(F)F)c1 [Compound I-814] | ≤ 0.1 | < 1 |
| Cc1ccccc1C1NC(=O)c2cc(NC3COC3)cc(NC(=O)c3csc4ccccc34)c21 (stereo not shown) [Compound I-51] | ≤ 0.1 | < 1 |
| O=C(Nc1cc(Nc2ncco2)cc2c1C(c1cc(F)ccc1Cl)NC2=O)c1cc(F)cc(C(F)(F)F)c1 (stereo not shown) [Compound I-961] | ≤ 0.1 | < 1 |
| O=C1N[C@@H](c2cc(F)ccc2Cl)c2c(NC(=O)N3C[C@H](O)c4cc(F)ccc43)cc(-n3ccccc3=O)cc21 (single isomer, unassigned) [Compound I-2350] | ≤ 0.1 | 5 to 10 |
| O=C(Nc1cccc2c1[C@H](c1cc(F)ccc1Cl)NC2=O)c1cc(F)cc(C(F)(F)F)c1 [Compound I-500] | ≤ 0.1 | < 1 |
| N#Cc1c(-c2cc(NC(=O)c3cc(F)cc(C(F)(F)F)c3)c3c(c2)C(=O)N[C@H]3c2cc(F)ccc2Cl)ccc2ncnn12 (single isomer, unassigned) [Compound I-1648] | – | < 1 |
| N#Cc1c(-c2cc(NC(=O)c3cc(F)cc(C(F)(F)F)c3)c3c(c2)C(=O)N[C@@H]3c2cc(F)ccc2Cl)ccc2ncnn12 (single isomer, unassigned) [Compound I-1647] | – | 1 to 5 |
| O=C(Nc1cccc2c1C(C1CC1)NC2=O)c1cc(F)cc(C(F)(F)F)c1 (stereo not shown) [Compound I-259] | 10 to 100 | – |
| CS(=O)(=O)Nc1cc(-c2ccc3ncnn3c2)cc2c1C(c1cc(F)ccc1Cl)NC2=O (stereo not shown) [Compound I-1898] | 1 to 10 | – |
| O=C1NC(c2cc(F)ccc2Cl)c2c(NC(=O)N3CCC4(C3)CC4(F)F)cc(-c3ccc4ncnn4c3)cc21 (stereo not shown) [Compound I-1722] | 1 to 10 | – |
| Nc1cc(C(=O)Nc2cccc3c2C(c2cc(F)ccc2Cl)NC3=O)cc(C(F)(F)F)c1 (stereo not shown) [Compound I-449] | 1 to 10 | – |
| O=C1NC[C@@H](c2cc(NC(=O)c3cc(F)cc(C(F)(F)F)c3)c3c(c2)C(=O)N[C@H]3c2cc(F)ccc2Cl)O1 (single isomer, unassigned) [Compound I-1562] | ≤ 0.1 | – |
| O=C(Nc1cc(Br)cc2c1C(c1cc(F)ccc1C(F)F)NC2=O)c1cc(F)cc(C(F)(F)F)c1 (stereo not shown) [Compound I-206] | ≤ 0.1 | – |
| O=C(Nc1cc(N2CC3CNCC3C2=O)cc2c1C(c1cc(F)ccc1Cl)NC2=O)c1cc(F)cc(C(F)(F)F)c1 (stereo not shown) [Compound I-1291] | ≤ 0.1 | – |
| O=C1NC(c2cc(F)ccc2Cl)c2c(NC(=O)N3CCSC3)cccc21 (stereo not shown) [Compound I-2428] | 10 to 100 | – |
| O=C(Nc1cc(-c2ccc3cncn3c2)cc2c1C(c1cc(F)ccc1Cl)NC2=O)c1cc(F)cc(C(F)(F)F)c1 (stereo not shown) [Compound I-1500] | ≤ 0.1 | – |
| O=C(Nc1cc(-c2cncc3ccccc23)cc2c1C(c1cc(F)ccc1Cl)NC2=O)c1cc(F)cc(C(F)(F)F)c1 (stereo not shown) [Compound I-852] | ≤ 0.1 | – |
| Cn1nccc1-c1cc(NC(=O)c2cc(F)cc(C(F)(F)F)c2)c2c(c1)C(=O)N[C@H]2c1cc(F)ccc1Cl [Compound I-1136] | ≤ 0.1 | – |

More lines, main results first:

| IC50 [2] [µM] | SMILES | IC50 [1] [µM] |
| --- | --- | --- |
| ≤ 0.1 | Cn1ncc(-c2cc(NC(=O)c3cc(F)cc(C(F)(F)F)c3)c3c(c2)C(=O)N[C@H]3c2cc(F)ccc2Cl)c1C#N [Compound I-1795] | – |
| 1 to 10 | O=C(Nc1cc(Br)cc2c1C(c1cc(F)ccc1Cl)NC2=O)NC1(C(F)(F)F)CC1 (stereo not shown) [Compound I-1294] | – |
| ≤ 0.1 | O=C(Nc1cc(CC2(O)CCC2)cc2c1C(c1cc(F)ccc1Cl)NC2=O)c1cc(F)cc(C(F)(F)F)c1 (stereo not shown) [Compound I-706] | – |
| 1 to 10 | Cc1ccccc1C1NC(=O)c2cccc(NC(=O)c3nscc3-c3ccccc3)c21 (stereo not shown) [Compound I-413] | – |
| 10 to 100 | CN(C(=O)Nc1cccc2c1C(c1cc(F)ccc1Cl)NC2=O)c1ccc(F)cc1 (stereo not shown) [Compound I-2435] | – |
| 1 to 10 | CC(C)(C)C(=O)Nc1cc(Br)cc2c1C(c1cc(F)ccc1Cl)NC2=O (stereo not shown) [Compound I-1139] | – |
| ≤ 0.1 | Cn1cc(C#Cc2cc(NC(=O)c3cc(F)cc(C(F)(F)F)c3)c3c(c2)C(=O)NC3c2cc(F)ccc2Cl)cn1 (stereo not shown) [Compound I-1155] | – |
| 0.1 to 0.5 | O=C(Nc1cc(OC[C@@H]2CCCN2)cc2c1C(c1cc(F)ccc1Cl)NC2=O)c1cc(F)cc(C(F)(F)F)c1 (single isomer, unassigned) [Compound I-1468] | – |
| ≤ 0.1 | CN1CC(COc2cc(NC(=O)c3cc(F)cc(C(F)(F)F)c3)c3c(c2)C(=O)NC3c2cc(F)ccc2Cl)CC1=O (mixture of isomers) [Compound I-1348] | – |
| 0.1 to 0.5 | N#CCn1ccnc1-c1cc(NC(=O)c2cc(F)cc(C(F)(F)F)c2)c2c(c1)C(=O)NC2c1cc(F)ccc1Cl (stereo not shown) [Compound I-1454] | – |
| ≤ 0.1 | O=C(Nc1cc(-c2cc(F)c3ncnn3c2)cc2c1[C@H](c1cc(F)ccc1Cl)NC2=O)c1cc(F)cc(C(F)(F)F)c1 [Compound I-1704] | – |
| 1 to 10 | O=C(Nc1cc(Br)cc2c1C(c1cc(F)ccc1Cl)NC2=O)c1cc(F)ccc1F (stereo not shown) [Compound I-793] | – |
| ≤ 0.1 | O=C(Nc1cc(NCC(F)F)cc2c1C(c1cc(F)ccc1Cl)NC2=O)c1cc(F)cc(C(F)(F)F)c1 (stereo not shown) [Compound I-275] | – |
| ≤ 0.1 | C[S@@](=O)(Cc1cc(NC(=O)c2cc(F)cc(C(F)(F)F)c2)c2c(c1)C(=O)N[C@H]2c1cc(F)ccc1Cl)=NC#N (single isomer, unassigned) [Compound I-1565] | – |
| 0.1 to 0.5 | O=C(Nc1cc(Br)cc2c1C(c1cc(F)ccc1Cl)NC2=O)c1ccc(F)c(OC(F)(F)F)c1 (stereo not shown) [Compound I-516] | – |
| 1 to 10 | O=C1N[C@H](c2cc(F)ccc2Cl)c2c(NC(=O)N3C[C@@](O)(C(F)(F)F)c4cc(F)ccc43)ccc(-n3ccnn3)c21 (single isomer, unassigned) [Compound I-2524] | – |
| 1 to 10 | O=C(Nc1cc(-c2ccc3nnc(C(F)F)n3c2)cc2c1[C@@H](c1cc(F)ccc1Cl)NC2=O)c1cc(F)cc(C(F)(F)F)c1 [Compound I-1924] | – |
| 1 to 10 | CC(C)(O)c1cc(NC(=O)c2cc(F)cc(C(F)(F)F)c2)c2c(n1)C(=O)N[C@@H]2c1cc(F)ccc1Cl [Compound I-271] | – |
| ≤ 0.1 | O=C(Nc1cc(Nc2ccccc2)cc2c1C(c1cc(F)ccc1Cl)NC2=O)c1cc(F)cc(C(F)(F)F)c1 (stereo not shown) [Compound I-1213] | – |
